# Laboratory results as given in patent US9861647B2 (Prelief Inc., priority 2007, dated 2018).
# Experiments:
# [1] = tested on: ragweed sensitized Beagle dogs; experiment: Ragweed-induced nasal congestion, nasal cavity volume by acoustic rhinometry; assay type: in vivo
# Source text: Beagle dogs immunized with ragweed (RW) as puppies develop allergic immune responses. These allergic dogs show elevated total and specific serum IgE and increased numbers of eosinophils in their blood and lungs, as well as an increase in airway resistance and a decrease in dynamic compliance after a challenge with RW by inhalation or local instillation in defined lung lobes. Additionally, these dogs develop increased nasal congestion and inflammation following RW challenge in the nose.
# Ragweed sensitized beagle dogs (n=5) with preexisiting nasal and airway allergic responses were utilized in the animal study described in this Example. Dogs served as their own control and initially were treated with vehicle (sterile water) and then rested for 5 weeks prior to receiving the test compound. […] Based on the aerosol testing only 1.6 mg/dog could be delivered by inhalation during a 15 minute exposure (20 mg/ml solution). […]
# FIG. 1 summarizes the study design for characterizing the effects of CGP on rhinitis symptoms in ragweed sensitized Beagle dogs. The baseline nasal cavity volume was first measured 3 days (day −3) before each of the vehicle and CGP treatments. […]
# Treatment occurred on Days 0 to 5 (only AM on Day 5). […] The pH of the compound (as administered for nasal inhalation) was recorded prior to administration. […]
# Acoustic rhinometery was measured on experimental Days 3, 4, and 5. […]
# [2] = Tolerability in dogs: daily observations, body weights, blood chemistry; assay type: in vivo, Beagle dogs
# Description: Ragweed sensitized beagle dogs (n=5) with preexisiting nasal and airway allergic responses were utilized in the animal study described in this Example. Dogs served as their own control and initially were treated with vehicle (sterile water) and then rested for 5 weeks prior to receiving the test compound. […] Based on the aerosol testing only 1.6 mg/dog could be delivered by inhalation during a 15 minute exposure (20 mg/ml solution). In addition, each dog received twice daily an intranasal instillation of 30 mg (2×375 μl of 20 mg/ml in each nostril) given within 30 minutes after the end of the inhalation exposures.
# Vehicle (sterile water) was given twice daily by inhalation (15 minutes) followed by intranasal instillation of water (2×250 μl in each nostril). […] The test-article and the compound solution were prepared in the morning of each treatment day. Vehicle and test-article were administered by inhalation and intranasal instillation twice a day. Dosing of vehicle or test compound was achieved by utilizing a face mask connected to a jet nebulizer for inhalation delivery followed by intranasal instillation in both nostrils using an Accuspray device.
# Blood sample was collected by placing a venous (cephalic or saphenous) catheter in the leg prior to anesthesia or by venipuncture (jugular) using a syringe or needle-vacutainer. […]
substance,measurement,setting,value
calcium glycerophosphate,attenuation of nasal congestion at individual time points,"[1]; 15 to 90 minutes post ragweed, Bonferroni posttest p<0.05",statistically significant at all time points from 15 to 90 minutes post ragweed
same,AUC of the change in nasal cavity volume between 0 and 90 min,"[1]; vs vehicle control, n=5, Paired t-test p=0.0092",significantly increased
same,"daily observations, adverse health effects","[2]; dog, in vivo",No adverse health effects were found
same,tolerability,"[2]; dogs, BID inhalation + intranasal instillation, Days 0 to 5",well tolerated
